Test system: H4IIE cells
Assay: Cellular bioassay of hepatic glucose production (gluconeogenesis) induced by sodium pyruvate and lactate (SLP)
Type: cell-based
Conditions: for glucose production relative to SLP condition (100%): 6 h incubation
Protocol: A cellular bioassay was established according to a method described by Okamoto et al. (Establishment and characterization of a novel method for evaluating gluconeogenesis using hepatic cell lines, H4IIE and HepG2, Archives of Biochemistry and Biophysics, Volume 491, Issues 1-2, November 2009, Pages 46-52; Takashi Okamoto, Naohide Kanemoto, Takashi Ban, Toshiki Sudo, Keisuke Nagano, Ichiro Niki.) (FIG. 1). Briefly, H4IIE cells pre-cultured at high density were seeded into a 12-well plate at a density of 5.714×10^5 cells/cm^2 and cultured for 24 h in EMEM supplemented with 10% FCS. […] The assay was started by switching the medium for KHH Buffer in the presence of gluconeogenesis-inducing substrates (1 mM sodium pyruvate and 10 mM lactate). Compounds were added at different concentrations and tested in duplicate. 10 mM of metformin was included as a positive control for inhibition of gluconeogenesis. The conditioned medium was collected after 6 h of incubation (stored at −80° C.). The cells remaining in the wells are washed once with PBS and then stored dry at −20° C.). The medium is used to assay glucose content using a fluorometric glucose assay kit. Frozen cells' proteins are first extracted and then quantified, to normalize the glucose results. Components were tested in at least two independent experiments performed at different cell passages. The selected compounds (Histidine and Ferulic acid) were tested individually to assess their inhibitory effect on hepatic glucose production (Table 1) using a range of concentrations determined from previous internal knowledge and literature. Additional experiments on individual compounds were conducted: the amino acid arginine and leucine to test the specificity of histidine effects against other amino acids. In addition, interactions and synergies between compounds were further explored using combined formulations, for which detailed information is provided in Table 1. For data analysis described herein, results are expressed as relative glucose produced in every treatment compared to the glucose produced using SLP treatment. […] Independent experiments were performed, using different cells passages in each condition. […] Sodium Pyruvate (1 mM) and Sodium Lactate (10 mM) was used to induce gluconeogenesis in H4IIE cells.

## N=C(N)NCCC[C@H](N)C(=O)O [Arginine, arginine, reference compound]
Single compound at 0.2 mM
  glucose production relative to SLP condition (100%): 81.44%±2.72
Single compound at 2 mM
  glucose production relative to SLP condition (100%): 65.01%±11.52
Single compound at 20 mM
  glucose production relative to SLP condition (100%): 45.40%±3.57

## COc1cc(/C=C/C(=O)O)ccc1O [Ferulic acid, ferulic acid]
Dose doubled from 0.5 μM to 1 μM
  inhibition on doubling the dose: 30%
Dose doubled from 1 μM to 2 μM
  inhibiting effect of doubling the dose: 40%
Dose doubled from 2 μM to 4 μM
  inhibition on doubling the dose: 32%
Single compound at 0.5 μM
  glucose production relative to SLP condition (100%): 85.67%±3.81
Single compound at 0.8 μM
  glucose production relative to SLP condition (100%): 81.51%±11.70
Single compound at 1 μM
  glucose production relative to SLP condition (100%): 61.38%±15.82
Single compound at 2 μM
  glucose production relative to SLP condition (100%): 36.57%±6.02
Single compound at 4 μM
  glucose production relative to SLP condition (100%): 25.08%±5.03

## CC(C)C[C@H](N)C(=O)O [Leucine, leucine, reference compound]
Single compound at 0.2 mM
  glucose production relative to SLP condition (100%): 84.69%±1.05
Single compound at 2 mM
  glucose production relative to SLP condition (100%): 75.37%±0.36
Single compound at 20 mM
  glucose production relative to SLP condition (100%): 83.76%±7.30

## N[C@@H](Cc1c[nH]cn1)C(=O)O [histidine]
Dose doubled from 0.5 mM to 1 mM
  inhibiting effect of doubling the dose: 52%
Dose doubled from 1 mM to 2 mM
  inhibiting effect of doubling the dose: 25%
Single compound at 0.2 mM
  glucose production relative to SLP condition (100%): 93.7%±10.85
Single compound at 0.5 mM
  glucose production relative to SLP condition (100%): 87.00%±17.2
Single compound at 1 mM
  glucose production relative to SLP condition (100%): 52.67%±4.16
Single compound at 2 mM
  glucose production relative to SLP condition (100%): 39.19%±7.44
Single compound at 20 mM
  glucose production relative to SLP condition (100%): 8.39%±2.49

## CN(C)C(=N)N=C(N)N [metformin, reference compound]
10 mM, positive control
  glucose production relative to SLP condition (100%): 9.71%±4.2

Source: US11896581B2, “Compositions and methods for providing health benefits in an animal” (Société des Produits Nestlé S.A., priority 2020, dated 2024)
